Experimental findings from ChEMBL document CHEMBL3045439, “Isoforms of the heteropteran Nezara viridula ecdysone receptor: protein characterisation, RH5992 insecticide binding and homology modelling” (Pest Manag Sci, 2011) are described below.

What all share (format): protein-complex assay
Assay [1] has as its target T1, Ecdysone receptor (Lucilia cuprina, UniProt O18531+Q962I5).
T1 sequence (O18531 whole entry): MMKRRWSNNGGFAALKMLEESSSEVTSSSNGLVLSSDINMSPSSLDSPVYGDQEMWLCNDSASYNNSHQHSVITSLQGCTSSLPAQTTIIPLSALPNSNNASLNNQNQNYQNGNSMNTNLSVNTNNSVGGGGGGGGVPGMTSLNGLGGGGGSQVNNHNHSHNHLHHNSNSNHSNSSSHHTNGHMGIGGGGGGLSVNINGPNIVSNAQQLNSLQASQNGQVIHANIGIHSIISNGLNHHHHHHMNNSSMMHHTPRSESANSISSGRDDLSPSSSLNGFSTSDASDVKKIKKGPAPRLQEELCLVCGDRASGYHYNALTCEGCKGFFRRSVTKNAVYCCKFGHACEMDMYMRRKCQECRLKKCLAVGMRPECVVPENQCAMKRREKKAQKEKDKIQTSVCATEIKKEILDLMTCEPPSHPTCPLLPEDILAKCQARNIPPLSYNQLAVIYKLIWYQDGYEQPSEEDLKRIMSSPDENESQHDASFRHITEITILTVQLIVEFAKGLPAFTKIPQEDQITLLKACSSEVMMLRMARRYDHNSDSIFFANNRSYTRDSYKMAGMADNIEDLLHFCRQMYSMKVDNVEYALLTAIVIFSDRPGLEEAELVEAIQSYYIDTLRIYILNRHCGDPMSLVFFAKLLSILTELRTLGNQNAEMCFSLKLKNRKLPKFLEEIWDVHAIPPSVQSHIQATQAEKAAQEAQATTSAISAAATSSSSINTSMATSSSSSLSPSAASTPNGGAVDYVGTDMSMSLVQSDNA
T1 sequence (Q962I5 whole entry): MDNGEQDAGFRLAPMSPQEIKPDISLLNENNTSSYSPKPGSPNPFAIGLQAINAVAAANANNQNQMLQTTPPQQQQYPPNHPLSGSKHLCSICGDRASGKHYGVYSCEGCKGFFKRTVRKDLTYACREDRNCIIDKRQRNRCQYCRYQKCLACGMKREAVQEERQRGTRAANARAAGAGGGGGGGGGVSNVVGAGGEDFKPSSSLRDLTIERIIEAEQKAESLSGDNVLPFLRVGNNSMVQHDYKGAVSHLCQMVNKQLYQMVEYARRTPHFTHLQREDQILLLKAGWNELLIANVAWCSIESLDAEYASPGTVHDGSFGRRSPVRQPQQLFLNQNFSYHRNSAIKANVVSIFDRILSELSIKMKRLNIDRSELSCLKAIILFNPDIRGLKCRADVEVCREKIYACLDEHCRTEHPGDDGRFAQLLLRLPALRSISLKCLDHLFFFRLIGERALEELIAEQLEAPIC
The assay can be described thus: Binding affinity to Lucilia cuprina EcR.

Assay [2] deals with T2, Ecdysone receptor (Plodia interpunctella, UniProt Q6IVK1+Q6RVD3).
T2 sequence (Q6RVD3 whole entry): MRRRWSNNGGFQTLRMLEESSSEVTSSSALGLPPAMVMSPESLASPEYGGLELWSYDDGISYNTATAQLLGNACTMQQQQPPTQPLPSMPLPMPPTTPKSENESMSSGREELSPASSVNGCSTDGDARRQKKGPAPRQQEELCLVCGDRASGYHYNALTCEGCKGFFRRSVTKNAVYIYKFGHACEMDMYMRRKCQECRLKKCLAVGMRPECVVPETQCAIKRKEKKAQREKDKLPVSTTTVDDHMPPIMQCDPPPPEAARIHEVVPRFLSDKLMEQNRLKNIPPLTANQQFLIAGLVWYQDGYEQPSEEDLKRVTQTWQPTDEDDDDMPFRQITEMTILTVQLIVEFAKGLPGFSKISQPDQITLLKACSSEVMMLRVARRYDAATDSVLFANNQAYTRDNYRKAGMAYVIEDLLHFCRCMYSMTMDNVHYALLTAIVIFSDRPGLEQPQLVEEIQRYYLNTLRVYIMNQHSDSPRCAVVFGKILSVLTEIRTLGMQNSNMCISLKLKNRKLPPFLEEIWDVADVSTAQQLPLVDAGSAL
T2 sequence (Q6IVK1 whole entry): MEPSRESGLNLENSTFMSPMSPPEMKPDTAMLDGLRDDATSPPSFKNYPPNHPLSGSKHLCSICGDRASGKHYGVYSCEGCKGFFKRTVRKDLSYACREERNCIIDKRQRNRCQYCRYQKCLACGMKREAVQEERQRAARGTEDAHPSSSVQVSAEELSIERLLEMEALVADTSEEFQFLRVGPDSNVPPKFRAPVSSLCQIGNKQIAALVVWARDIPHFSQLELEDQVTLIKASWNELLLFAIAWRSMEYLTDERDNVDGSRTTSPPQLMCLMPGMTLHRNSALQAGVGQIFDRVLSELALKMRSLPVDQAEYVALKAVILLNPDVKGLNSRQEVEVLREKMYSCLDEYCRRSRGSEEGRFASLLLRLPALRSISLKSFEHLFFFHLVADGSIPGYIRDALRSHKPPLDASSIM
The experiment in a line: Binding affinity to Plodia interpunctella (Indian meal moth ) EcR.

The target of assay [3] is T3, Ecdysone receptor (Heliothis virescens, UniProt O18473+Q7SIF6).
T3 sequence (O18473 whole entry): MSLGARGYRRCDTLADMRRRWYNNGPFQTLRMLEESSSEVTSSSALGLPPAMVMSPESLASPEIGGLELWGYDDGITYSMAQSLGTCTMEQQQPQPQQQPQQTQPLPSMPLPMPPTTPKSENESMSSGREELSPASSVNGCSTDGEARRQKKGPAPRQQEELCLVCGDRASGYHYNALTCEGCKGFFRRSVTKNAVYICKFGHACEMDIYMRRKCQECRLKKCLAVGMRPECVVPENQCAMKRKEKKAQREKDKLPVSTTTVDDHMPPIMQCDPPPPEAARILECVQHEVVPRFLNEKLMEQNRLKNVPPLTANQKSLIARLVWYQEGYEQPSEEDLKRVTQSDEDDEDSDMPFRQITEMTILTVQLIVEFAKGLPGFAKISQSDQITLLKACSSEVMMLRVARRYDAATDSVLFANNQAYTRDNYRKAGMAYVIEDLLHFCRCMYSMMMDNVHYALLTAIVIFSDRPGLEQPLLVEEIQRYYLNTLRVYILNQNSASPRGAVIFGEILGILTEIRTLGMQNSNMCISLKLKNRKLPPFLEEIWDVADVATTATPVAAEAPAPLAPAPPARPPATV
T3 sequence (Q7SIF6 whole entry): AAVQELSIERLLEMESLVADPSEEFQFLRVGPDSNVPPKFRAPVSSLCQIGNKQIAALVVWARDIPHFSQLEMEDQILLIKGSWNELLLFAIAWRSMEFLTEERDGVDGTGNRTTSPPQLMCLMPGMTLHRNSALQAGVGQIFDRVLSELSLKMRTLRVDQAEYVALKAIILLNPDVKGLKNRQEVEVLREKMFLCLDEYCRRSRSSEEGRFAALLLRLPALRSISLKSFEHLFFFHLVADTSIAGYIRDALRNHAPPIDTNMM
The experiment in a line: Binding affinity to Heliothis virescens (tobacco budworm) EcR.

On to `CCc1ccc(C(=O)NN(C(=O)c2cc(C)cc(C)c2)C(C)(C)C)cc1` [TEBUFENOZIDE], for which the Ki on Ecdysone receptor [1] was 158 nM; at Ecdysone receptor [2], 3.16 nM; at Ecdysone receptor [3], 3.16 nM.
